Consider six molecules from patent US20230167084A1, “TETRAHYDROISOQUINOLINE COMPOUNDS AS NRF2 ACTIVATORS” (C4X Discovery Limited, priority 2020, published 2023).

Assay [1] addresses T1, human KEAP1 (N-term, residues 321-609) (Homo sapiens, UniProt Q14145).
T1 construct: human KEAP1 (N-term, residues 321-609) enzyme
Description: KEAP1 Kelch Fluorescence Polarization (FP) Assay. It counts as binding. As to conditions: inhibition of Kelch domain-NRF2 interaction; 2 nM FITC-labelled NRF2 peptide, 25 nM KEAP1, 1 h at room temperature; compounds below 10 nM cannot be differentiated. As for the experimental part:
Inhibition of the Kelch domain-NRF2 interaction was determined using a fluorescence polarization-based competition assay in a black 384-well microplate. Compounds were tested at a starting concentration of 10 μM serially diluted 1:3 to generate a 12-point dose response curve on the Biomek FX robot. Each well contained 2 nM FITC-labelled NRF2 peptide (FITC-LDEETGEFL-NH2) and 25 nM human KEAP1 (N-term, residues 321-609) enzyme in a final volume of 20 μL of assay buffer (50 mM Tris-HCl pH 8.0, 100 mM NaCl, 5 mM MgCl2, 0.005% Tween-20, 0.005% BSA, 0.5% DMSO) in the presence of varying concentrations of test compound. Unlabelled peptide (LDEETGEFL-NH2) at 50 μM (negative control) and 0.5% DMSO (positive control) was used to determine the assay window.
After 1 h at room temperature, fluorescence polarization (excitation 470 nm/emission 530 nm) was measured using an Envision plate reader. IC50 values were determined by fitting the data to a four parameter logistic fit using XLfit or XE Runner within ActivityBase. The assay limit is such that compounds below 10 nM cannot be differentiated.
A general note: Fluorescence polarisation rises when a labelled molecule tumbles more slowly, as on binding a larger partner.

Assay [2] relates to NRF2 mediated gene NAD(P)H:quinone acceptor oxidoreductase 1 (NQO1) in BEAS-2B cells. Description: Beas2B NQO1 mRNA Cell Based Assay. As to conditions: Homo sapiens, NQO1 mRNA increase compared to vehicle (0.1% DMSO), 24 h. As for the experimental part:
The up regulation of the NRF2 mediated gene NAD(P)H:quinone acceptor oxidoreductase 1 (NQO1) was measured using the following assay method: BEAS-2B cells (ATCC CRL-9609) were plated in 96-well clear plates at 20,000 cells/well in 75 μL of cell culture media and incubated overnight (37° C., 5% CO2). On day 2, 25 μL of compound or controls were added to the cells for 24 h. On day 3, the medium was aspirated from the plate and the Cells-to-CT™ 1-Step TaqMan® Kit (Ambion A25603) was used to perform expression analysis directly from cultured cells without RNA purification according to the manufacturer's instructions.
Briefly, cells were washed with ice cold PBS and 22.5 μL of room-temperature DNase/Lysis solution was added to the cells and incubated at room temperature for 5 minutes. To stop the reaction, 2.25 μL of stop solution was added to the cell lysate. The samples were diluted 1:5 using nuclease free water and 2.5 μL transferred into the PCR plate. Real-time PCR was performed using the C-1000 Thermal Cycler (Bio-Rad) using human beta actin as the internal control. The cDNA was amplified with a specific primer for NQO1 using the 1-step RT-PCR master mix (Ambion Cells-to-CT™ 1-Step TaqMan® Kit A25603). The primers/probes sets that were used for amplification of cDNA were obtained from TaqMan Gene Expression Assays (Applied Biosystems). The comparative CT (ΔΔCT) relative quantification method was used to calculate the relative mRNA level of the target gene NQO1 as described in the Applied Biosystems Chemistry Guide. The data are expressed as an increase in target gene mRNA compared to vehicle (0.1% DMSO) control and the EC50 values were determined by fitting the data to a four parameter logistic fit using XLfit or XE Runner within ActivityBase.

Each structure is given as a SMILES string.

T1 sequence (Q14145 321-609): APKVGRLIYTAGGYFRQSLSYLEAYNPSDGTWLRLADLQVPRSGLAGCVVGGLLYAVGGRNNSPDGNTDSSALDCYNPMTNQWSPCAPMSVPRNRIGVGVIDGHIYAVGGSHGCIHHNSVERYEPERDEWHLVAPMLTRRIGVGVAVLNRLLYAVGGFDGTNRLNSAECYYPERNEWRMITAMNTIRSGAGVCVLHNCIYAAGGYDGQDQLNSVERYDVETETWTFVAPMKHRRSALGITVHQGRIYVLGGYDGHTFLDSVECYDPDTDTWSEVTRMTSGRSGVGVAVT

The term IC50 denotes the concentration needed to halve the response being measured. Read a high IC50 as a need for much substance. A word on the EC50: it is the concentration giving half of the maximal effect. Read a high EC50 as a less potent agent. As to `Cn1nnc(COc2c(F)cc(Cl)c3c2[C@@H](CN2CC4(CC4)CC2=O)N(C(=O)[C@@H]2CCCC[C@]2(C)c2nnn[nH]2)CC3)c1C(F)F` [Example 1, 5-(((S)-5-chloro-8-((5-(difluoromethyl)-1-methyl-1H-1,2,3-triazol-4-yl)methoxy)-7-fluoro-2-((1R,2S)-2-methyl-2-(1H-tetrazol-5-yl)cyclohexane-1-carbonyl)-1,2,3,4-tetrahydroisoquinolin-1-yl)methyl)-5-azaspiro[2.4]heptan-6-one], the IC50 in assay [1] was determined as 4.8 nM. In addition, in assay [2], the EC50 worked out at 6.8 nM.
The like results for `Cn1nnc(COc2c(F)cc(Cl)c3c2[C@@H](CN2CCOCC2=O)N(C(=O)[C@@H]2CCCC[C@]2(C)C(=O)O)CC3)c1C(F)F` [Example 2, (1S,2R)-2-((S)-5-chloro-8-((5-(difluoromethyl)-1-methyl-1H-1,2,3-triazol-4-yl)methoxy)-7-fluoro-1-((3-oxomorpholino)methyl)-1,2,3,4-tetrahydroisoquinoline-2-carbonyl)-1-methylcyclohexane-1-carboxylic acid] were, in that order, 5.4 nM and 1.3 nM.
The like results for `C[C@@H]1CC(=O)N(C[C@@H]2c3c(c(Cl)cc(F)c3OCc3nnn(C)c3C(F)F)CCN2C(=O)[C@@H]2CCCC[C@]2(C)C(=O)O)C1` [Example 3, (1S,2R)-2-((S)-5-chloro-8-((5-(difluoromethyl)-1-methyl-1H-1,2,3-triazol-4-yl)methoxy)-7-fluoro-1-(((R)-4-methyl-2-oxopyrrolidin-1-yl)methyl)-1,2,3,4-tetrahydroisoquinoline-2-carbonyl)-1-methylcyclohexane-1-carboxylic acid] were, in that order, 4.4 nM and 2.1 nM.
In the case of `C[C@]1(C(=O)O)CCC[C@H]1C(=O)N1CCc2c(Cl)cc(F)c(OCc3nnn4c3CCCC4)c2[C@H]1CN1CC2(CC2)CC1=O` [Example 4, (1S,2R)-2-((S)-5-chloro-7-fluoro-1-((6-oxo-5-azaspiro[2.4]heptan-5-yl)methyl)-8-((4,5,6,7-tetrahydro-[1,2,3]triazolo[1,5-a]pyridin-3-yl)methoxy)-1,2,3,4-tetrahydroisoquinoline-2-carbonyl)-1-methylcyclopentane-1-carboxylic acid], in assay [1], 5 nM corresponded to half-maximal inhibition (IC50). Further, the EC50 in assay [2] is 0.3 nM.
Turning to `Cc1nnc(COc2c(F)cc(Cl)c3c2[C@@H](CN2CC4(CC4)CC2=O)N(C(=O)[C@@H]2CCCC[C@]2(C)C(=O)O)CC3)n1C` [Example 5, (1S,2R)-2-((S)-5-chloro-8-((4,5-dimethyl-4H-1,2,4-triazol-3-yl)methoxy)-7-fluoro-1-((6-oxo-5-azaspiro[2.4]heptan-5-yl)methyl)-1,2,3,4-tetrahydroisoquinoline-2-carbonyl)-1-methylcyclohexane-1-carboxylic acid], 4.9 nM corresponded to half-maximal inhibition in assay [1] (IC50). In assay [2], the EC50 is 0.5 nM.
With `Cn1cc(COc2c(F)cc(Cl)c3c2[C@@H](CN2CC4(CC4)CC2=O)N(C(=O)[C@@H]2CCCC[C@]2(C)C(=O)O)CC3)nn1` [Example 6, (1S,2R)-2-((S)-5-chloro-7-fluoro-8-((1-methyl-1H-1,2,3-triazol-4-yl)methoxy)-1-((6-oxo-5-azaspiro[2.4]heptan-5-yl)methyl)-1,2,3,4-tetrahydroisoquinoline-2-carbonyl)-1-methylcyclohexane-1-carboxylic acid], inhibition in assay [1] was half-maximal at 5 nM (IC50). In assay [2], the EC50 worked out at 1 nM.
